This note sets out measurements from patent US7566459B2, “Modified mycobacterium tuberculosis strains and uses thereof” (priority 2005, dated 2009).

No end group written: not given here. *: point of attachment. Palmitoyl = CCCCCCCCCCCCCCCC(=O)*

Assay [1] deals with bone marrow derived macrophages (BMDM). The format is cell-based, mice.
In the next assay the test system is BMDM. Briefly: cells. The note with it: Mus musculus, read-out: inhibition of TNFα production (as a measure of protein synthesis). The format is cell-based, mice.
Another assay has as its target T1, human TLR2 (Homo sapiens, UniProt O60603).
T1 construct: using an HEK293 cell line stably transfected with cDNA encoding human TLR2
The format is cell-based.

Assay [2] deals with RAW264.7 cells. The format is cell-based, murine.
For assay [3], the system named is RAW264.7 cells. It is filed as cell-based, murine. The source holds these as a separate data set.

T1 sequence (O60603 21-784): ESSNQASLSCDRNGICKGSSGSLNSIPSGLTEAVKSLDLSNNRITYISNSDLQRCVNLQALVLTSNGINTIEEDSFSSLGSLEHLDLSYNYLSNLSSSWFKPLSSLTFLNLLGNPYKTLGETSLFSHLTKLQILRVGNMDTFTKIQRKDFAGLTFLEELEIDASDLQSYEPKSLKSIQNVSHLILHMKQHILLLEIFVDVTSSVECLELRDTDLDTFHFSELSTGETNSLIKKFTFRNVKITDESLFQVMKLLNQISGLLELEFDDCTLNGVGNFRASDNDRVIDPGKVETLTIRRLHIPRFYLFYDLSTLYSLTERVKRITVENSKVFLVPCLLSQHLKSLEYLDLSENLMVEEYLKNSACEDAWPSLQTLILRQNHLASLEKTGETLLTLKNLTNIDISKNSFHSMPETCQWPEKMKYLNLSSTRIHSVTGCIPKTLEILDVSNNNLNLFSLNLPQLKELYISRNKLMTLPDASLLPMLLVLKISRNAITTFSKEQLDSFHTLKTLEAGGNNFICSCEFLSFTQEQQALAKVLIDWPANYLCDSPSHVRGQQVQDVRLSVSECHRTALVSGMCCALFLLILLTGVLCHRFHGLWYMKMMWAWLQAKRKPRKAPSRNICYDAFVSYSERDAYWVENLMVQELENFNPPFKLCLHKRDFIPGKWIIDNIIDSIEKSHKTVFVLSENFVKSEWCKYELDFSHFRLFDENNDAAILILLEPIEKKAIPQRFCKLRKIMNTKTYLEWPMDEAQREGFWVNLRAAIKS

For the molecule `C[C@@H]1C[C@@H]([C@H](O)CC2CC(=O)NC(=O)C2)C(=O)[C@@H](C)C1` [cycloheximide], the “effect on ability of wild-type or ΔlspA Mycobacterium tuberculosis to inhibit IFNγ induction of CIITA gene expression” value in assay [1] is “prevented”. For the same molecule, the inhibition – broadly, how much of the control response was suppressed – at 0.5 µM in the assay with BMDM was about 90%.

In the case of “(S)-[2,3-Bis(palmitoyloxy)-(2-RS)-propyl]-(R)-Cys-(S)-Ser-(S)-Lys4×3 CF3COOH (CSKKKK; not fully specified (residue 1); also: 3 CF3COOH salt) [Pam2CSK4, diacylated analog of Pam3CSK4]”, the “activation of 293-TLR2 cells / secretion of IL-8 (in words)” value in the assay with human TLR2 is “significant amounts of IL-8”.

Consider “(S)-[2,3-Bis(palmitoyloxy)-(2-RS)-propyl]-N-palmitoyl-(R)-Cys-(S)-Ser-(S)-Lys4-OH, 3HCl (Palmitoyl-CSKKKK-OH; not fully specified (residue 1); also: 3 HCl salt) [Pam3CSK4, synthetic triacylated hexapeptide, TLR2/TLR1 agonist]”, for which the “inhibition of IFNγ induction of surface MHC class II” value in the assay on RAW264.7 cells [2] is on record as “greater than 90%”. Besides, the “IFNγ induction of class II transactivator (CIITA) mRNA” value in the assay with RAW264.7 cells [3] was “potently inhibited”.

Consider macrophage-activating lipopeptide-2, for which the “activation of 293-TLR2 cells / secretion of IL-8 (in words)” value at human TLR2 is “significant amounts of IL-8”.
